# US20260034091A1, “Compositions and Methods for Treating Metabolic Disorders” (The Regents of the University of California, priority 2022, published 2026)
# System: CDAHFD diet-induced NAFLD/NASH in wild-type mice
# Experiment: TOFA in wild-type mice on CDAHFD (comparison to PPARA KO)
# Format: in vivo, C57BL/6J (WT) mice
# Description: Six-week-old genetic PPARA knockout (PPARA KO) male mice were fed with a L-amino acid diet with 60 kcal % fat with 0.1% methionine and no added choline (CDAHFD; Research Diets A06071302i) for three weeks or fed with a 60 kcal % fat diet (DIO; Research Diets A12492i) for eight weeks before introduction of either vehicle (control) or 125 mg/kg of TOFA, BID, via oral gavage for an additional two weeks (FIG. 11A and FIG. 11J, respectively). C57BL/6J (WT) mice were fed with the CDAHFD and underwent similar experimental conditions and time course. Mice weights and adverse events were monitored during the treatment time course. Upon study termination, serum and liver samples were collected. Serum liver damage biomarkers, ALT and AST, were measured by commercially available kits (abcam105134 and abcam 105135, respectively). Hepatic and serum triglyceride levels were measured from a commercially available kit (abcam65336). […] Quantitative PCR (qPCR) was performed with fast SYBR Green Mix (ThermoFisher A25742) on the QuantStudio6 System (Applied Biosciences). Protein expression levels of liver samples were measured by western blot using antibodies against ACC1/2 (CST3662, 1:1000), VLDLR (AF2258, 1:2000), CPT1A (CST12252, 1:1000), PPARA (abcam126285, 1:1000) and beta-tubulin (CST2146, 1:1000). […]
smiles,measurement,setting,value
"CCCCCCCCCCCCCCOc1ccc(C(=O)O)o1 [TOFA, 5-(Tetradecyloxy)-2-furoic acid]",Cpt1a mRNA (RT-qPCR),"125 mg/kg BID, two weeks",induction of Cpt1a mRNA
same,"protein expression levels of CPT1A, VLDLR, and ACC1 (western blot)",relative to vehicle control,increased
